Converted amounts (≈) assume the structure as drawn.
Key:
[1] = molecular target: T1, COX-2 (Mus musculus, UniProt Q05769); assay: Evaluation of COX-2 activity: PGE2 formation in aspirin-treated, LPS-stimulated mouse peritoneal macrophages; assay type: cell-based
T1 sequence (Q05769 18-604): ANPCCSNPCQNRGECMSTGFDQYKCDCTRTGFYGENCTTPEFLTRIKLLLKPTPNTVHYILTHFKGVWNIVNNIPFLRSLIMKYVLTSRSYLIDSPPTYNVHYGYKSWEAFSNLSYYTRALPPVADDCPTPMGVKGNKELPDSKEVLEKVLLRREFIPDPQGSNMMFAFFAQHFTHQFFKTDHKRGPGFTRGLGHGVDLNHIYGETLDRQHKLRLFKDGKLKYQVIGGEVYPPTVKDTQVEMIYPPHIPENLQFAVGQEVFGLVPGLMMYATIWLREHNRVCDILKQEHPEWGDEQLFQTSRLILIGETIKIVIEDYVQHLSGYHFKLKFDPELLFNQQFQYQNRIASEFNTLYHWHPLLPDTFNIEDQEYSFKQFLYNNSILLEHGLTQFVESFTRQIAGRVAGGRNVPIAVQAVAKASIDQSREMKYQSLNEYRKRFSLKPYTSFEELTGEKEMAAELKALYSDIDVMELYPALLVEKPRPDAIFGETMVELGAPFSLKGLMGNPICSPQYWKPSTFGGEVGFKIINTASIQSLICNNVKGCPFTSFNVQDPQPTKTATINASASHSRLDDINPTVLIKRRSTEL
Procedure: (§1) Evaluation of in vitro COX-2 and COX-1 Activity [J. Pharmacol. Exp. Ther. 166, 96 (1969)]
(§2) The abdominal skin of a C57BL/6 mouse was sanitized with 70% aqueous ethanol, and was removed without damaging the peritoneum. 5 ml of cold phosphate buffer solution (PBS) was then injected into the abdominal cavity. After a minute, the peritoneal fluid containing the macrophages was collected using a syringe and a needle. The collected fluid was centrifuged for 5 min at 1500 rpm to afford pellets of cells. The pellets were then dispersed in the RPMI-1640 culture medium containing 100 units/ml penicillin and 100 μg/ml streptomycin.
The pellets dispersed as above were treated with 500 μM aspirin in order to knock out the activity of the COX-1 enzymes in the cells. The suspension was then diluted with the RPMI-1640 medium to contain 1×10^6 cells/ml. 100 μl of the suspension was added to each well of a 96-well ELISA plate. Then the plate was incubated for 2 hrs at 37° C. under 5% CO2 in order to fix the macrophages onto the plate. The cells, which were not fixed onto the plate were removed by washing with PBS two times. […] The RPMI-1640 medium containing 3% fetal bovine serum albumin was added to each well of the plate, which was followed by stimulation with 10 μg/ml lipopolysaccharide (LPS). […] The LPS-treated suspensions were incubated for 16 hours at 37° C. under 5% CO2 to induce COX-2. Then the culture medium was removed and the macrophages were washed two times with PBS. Then 130 μl RPMI-1640 culture medium was added to each well and the macrophage solutions were incubated at 37° C. for 10 minutes, which was followed by the treatment with 10 μM arachidonic acid and an appropriate amount of compounds of this invention. The plate was incubated for another 10 minutes. The upper solution was collected using a micropipette and was subjected to determination of PGE2 amount in the solution. The amount of PGE2 present in the collected solution was determined either by a known radio-immuno assay or by a known enzyme-immunoassay [Methods in Enzymol. 86, 258 (1982); Methods in Enzymol. 187, 24 (1990)]. The extent of COX-2 inhibition by a compound of the present invention was calculated by assuming, that the amount of PGE2 formed with the treatment of 10 μg/ml arachidonic acid was used is the maximum possible amount of PGE2, and that the amount of PGE2 formed without the treatment of arachidonic acid is the minimum possible amount of PGE2.
(§3) In order to determine IC50 for a compound of this invention, enzymatic activities were measured at multiple concentrations of compounds of this invention around IC50 of the compound. Usually enzymatic activities at 4˜5 concentrations were measured to calculate out IC50 for a compound of this invention.

[2] = molecular target: T2, COX-1 (Mus musculus, UniProt P22437); assay: Evaluation of COX-1 activity: PGE2 formation in mouse peritoneal macrophages without aspirin and LPS treatment; assay type: cell-based
T2 sequence (P22437 27-602): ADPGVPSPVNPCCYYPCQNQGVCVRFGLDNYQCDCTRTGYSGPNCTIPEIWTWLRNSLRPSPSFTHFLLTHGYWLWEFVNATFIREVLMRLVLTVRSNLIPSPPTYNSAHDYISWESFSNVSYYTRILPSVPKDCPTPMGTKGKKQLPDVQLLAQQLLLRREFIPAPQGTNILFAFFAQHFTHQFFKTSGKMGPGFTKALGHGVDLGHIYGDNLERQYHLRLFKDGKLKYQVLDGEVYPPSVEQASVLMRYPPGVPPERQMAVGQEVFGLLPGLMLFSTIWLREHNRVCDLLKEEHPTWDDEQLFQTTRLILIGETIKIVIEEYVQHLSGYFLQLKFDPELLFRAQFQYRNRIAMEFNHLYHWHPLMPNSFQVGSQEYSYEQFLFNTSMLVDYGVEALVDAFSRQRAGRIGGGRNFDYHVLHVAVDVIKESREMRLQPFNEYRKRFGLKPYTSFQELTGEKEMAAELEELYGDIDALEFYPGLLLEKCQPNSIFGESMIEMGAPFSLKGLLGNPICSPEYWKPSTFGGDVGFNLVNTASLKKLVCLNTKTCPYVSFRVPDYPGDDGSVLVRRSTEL
Procedure: as §1, §2
The pellets dispersed as above were treated with 500 μM aspirin in order to knock out the activity of the COX-1 enzymes in the cells. The suspension was then diluted with the RPMI-1640 medium to contain 1×10^6 cells/ml. 100 μl of the suspension was added to each well of a 96-well ELISA plate. Then the plate was incubated for 2 hrs at 37° C. under 5% CO2 in order to fix the macrophages onto the plate. The cells, which were not fixed onto the plate were removed by washing with PBS two times. The purity of macrophages obtained thereby was confirmed by differential counting. The RPMI-1640 medium containing 3% fetal bovine serum albumin was added to each well of the plate, which was followed by stimulation with 10 μg/ml lipopolysaccharide (LPS). Usually 5×10^5 cells/ml were present by this preparation. The LPS-treated suspensions were incubated for 16 hours at 37° C. under 5% CO2 to induce COX-2. Then the culture medium was removed and the macrophages were washed two times with PBS. Then 130 μl RPMI-1640 culture medium was added to each well and the macrophage solutions were incubated at 37° C. for 10 minutes, which was followed by the treatment with 10 μM arachidonic acid and an appropriate amount of compounds of this invention. The plate was incubated for another 10 minutes. The upper solution was collected using a micropipette and was subjected to determination of PGE2 amount in the solution. The amount of PGE2 present in the collected solution was determined either by a known radio-immuno assay or by a known enzyme-immunoassay [Methods in Enzymol. 86, 258 (1982); Methods in Enzymol. 187, 24 (1990)]. The extent of COX-2 inhibition by a compound of the present invention was calculated by assuming, that the amount of PGE2 formed with the treatment of 10 μg/ml arachidonic acid was used is the maximum possible amount of PGE2, and that the amount of PGE2 formed without the treatment of arachidonic acid is the minimum possible amount of PGE2.
In the evaluation of COX-1 inhibitory activity by a compound of the present invention, the same procedures employed for evaluation of COX-2 activity were employed, except omitting the following two steps: 1) the treatment with aspirin for knockout of COX-1 activity and 2) treatment with LPS for induction of COX-2.
as §3

SMILES | IC50, μg/ml COX-2 [1] | IC50, μg/ml COX-1 [2] | melting point
CCC1(C)OC(c2ccc(S(C)(=O)=O)cc2)=C(c2cccnc2)C1=O (stereo not drawn) [Example 36, 2-Ethyl-2-methyl-5-{4-(methylsulfonyl)phenyl}-4-(3-pyridyl)-3(2H)-furanone] | 0.2 µg/mL (≈ 0.56 µM) | 50 µg/mL (≈ 140 µM) | –
CC1(C)OC(c2ccc(S(C)(=O)=O)cc2)=C(c2ccsc2)C1=O [Example 17, 2,2-Dimethyl-5-{4-(methylsulfonyl)phenyl}4-(3-thienyl)-3(2H)-furanone] | 0.2 µg/mL (≈ 0.574 µM) | 30 µg/mL (≈ 86.1 µM) | –
CC1(C)OC(c2ccc(S(C)(=O)=O)cc2)=C(c2ccccc2Cl)C1=O [Example 69] | – | 50 µg/mL (≈ 133 µM) | 100 to 103 °C
CC1(C)OC(c2ccc(S(C)(=O)=O)cc2)=C(c2cccc3ccccc23)C1=O [Example 13, 2,2-Dimethyl-5-{4-(methylsulfonyl)phenyl}-4-(1-naphthyl)-3(2H)-furanone] | – | – | 194 to 195 °C
CSc1ccc(C2=C(c3ccc(S(C)(=O)=O)cc3)OC(C)(C)C2=O)cc1 [Example 72, 2,2-dimethyl-5-{4-(methylsulfonyl)phenyl}-4-{4-(methylthio)-phenyl}-3(2H)-furanone] | – | – | 137 to 141 °C
CC1(C)OC(c2ccc(S(N)(=O)=O)cc2)=C(c2cc3ccccc3o2)C1=O [Example 30] | – | – | 143 to 145 °C
CC1(C)OC(c2ccc(S(C)(=O)=O)cc2)=C(c2ccc(F)c(Cl)c2)C1=O [Example 2, 4-(3-Chloro-4-fluorophenyl)-2,2-dimethyl-5-{4-(methylsulfonyl)phenyl}-3(2H)-furanone] | – | – | 162 to 164 °C
CCC1(CC)OC(c2ccc(S(C)(=O)=O)cc2)=C(c2ccccc2)C1=O [Example 47, 2,2-Diethyl-5-{4-(methylsulfonyl)phenyl}-4-phenyl-3(2H)-furanone] | – | – | 139 to 140 °C
CC1(C)OC(c2ccc(S(C)(=O)=O)cc2)=C(c2cccnc2)C1=O [Example 19, 2,2-Dimethyl-5-{4-(methylsulfonyl)phenyl}-4-(3-pyridyl)-3(2H)-furanone] | – | – | 164 to 166 °C
CC1(C)OC(c2ccc(S(C)(=O)=O)cc2)=C(c2cc3ccccc3o2)C1=O [Example 16, 4-(2-Benzo[b]furanyl)-2,2-dimethyl-5-{4-(methylsulfonyl)phenyl}-3(2H)-furanone] | – | – | 140 to 141 °C
CC(C)c1ccc(C2=C(c3ccc(S(C)(=O)=O)cc3)OC3(CCCC3)C2=O)cc1 [Example 54, 3-(4-Isopropylphenyl)-2-{4-(methylsulfonyl)phenyl}-1-oxa-spiro[4,4]non-2-en-4-one] | 0.05 µg/mL (≈ 0.122 µM) | – | –
CC1(C)OC(c2ccc(S(N)(=O)=O)cc2)=C(c2ccc3c(c2)OCO3)C1=O [Example 27, 5-{4-(Aminosulfonyl)phenyl{-2,2-dimethyl-4-}3,4-(methylenedioxy)phenyl}-3(2H)-furanone] | – | – | 178 to 179 °C
CC1(C)OC(c2ccc(S(C)(=O)=O)cc2)=C(c2ccc(OC(F)(F)F)cc2)C1=O [Example 7, 2,2-Dimethyl-5-{4-(methylsulfonyl)phenyl}-4-{4-(trifluoromethoxy)phenyl}-3(2H)-furanone] | – | – | 118 to 120 °C

Next, values leading:

IC50, μg/ml COX-2 [1] | IC50, μg/ml COX-1 [2] | melting point | SMILES
0.3 µg/mL (≈ 0.828 µM) | 20 µg/mL (≈ 55.2 µM) | – | C[S+]([O-])c1ccc(C2=C(c3cccc(F)c3)C(=O)C(C)(C)O2)cc1F (stereo not drawn) [Example 290, 2,2-Dimethyl-5-{3-fluoro-4-(methylsulfinyl)phenyl)-4-(3-fluorophenyl)-3(2H)-furanone]
0.1 µg/mL (≈ 0.268 µM) | 30 µg/mL (≈ 80.5 µM) | – | COc1cccc(C2=C(c3ccc(S(C)(=O)=O)cc3)OC(C)(C)C2=O)c1 [Example 95]
– | – | 106 °C | CSc1ccc(C2=C(c3cccc(F)c3)C(=O)C(C)(C)O2)cc1 [Example 166, 2,2-Dimethyl-4-(3-fluorophenyl)-5-{4-(methylthio)phenyl}-3(2H)-furanone]
– | – | 149 to 150 °C | C[S+]([O-])c1ccc(C2=C(c3ccccc3)C(=O)C(C)(C)O2)c(F)c1 (stereo not drawn) [Example 327, 2,2-Dimethyl-5-{2-fluoro-4-(methylsulfinyl)phenyl}-4-phenyl-3(2H)-furanone]
– | – | 245 to 257 °C | CC1(C)OC(c2ccc(S(C)(=O)=O)cc2)=C(c2ccc(S(C)(=O)=O)cc2)C1=O [Example 109, 2,2-Dimethyl-4,5-di{4-(methylsulfonyl)phenyl}-3(2H)-furanone]
– | – | 154 to 155 °C | Cc1cccc(C2=C(c3ccc(S(C)(=O)=O)cc3)OC3(CCCCC3)C2=O)c1 [Example 260, 3-(3-Methylphenyl)-2-{4-(methylsulfonyl)phenyl}-1-oxa-spiro[4,5]dec-2-en-4-one]
– | 5 µg/mL (≈ 13.2 µM) | 162 °C | CC1(C)OC(c2ccc(S(C)(=O)=O)cc2)=C(c2ccc(F)c(F)c2)C1=O [Example 80]
– | – | 81 to 82 °C | Cc1cc(C2=C(c3cccc(F)c3)C(=O)C(C)(C)O2)ccc1S(N)(=O)=O [Example 380, 5-{4-(Aminosulfonyl)-3-methylphenyl}-2,2-dimethyl-4-(3-fluorophenyl)-3(2H)-furanone]

— patent publication US6492416B1, “4,5-diaryl-3(2H)-furanone derivatives as cyclooxygenase-2 inhibitors” (Pacific Corporation, priority 1999, dated 2002)
